Results reported in ChEMBL document CHEMBL4400561, “Isolation, structural elucidation, and insights into the anti-inflammatory effects of triterpene saponins from the leaves of Stauntonia hexaphylla” (Bioorg Med Chem Lett, 2019).

Experiments:
RAW264.7 [1] = assay: Cytotoxicity against mouse RAW264.7 cells at anti-inflammatory IC50 after 19 hrs by MTT assay; format: cell-based; conditions: raw264.7, 19 h
RAW264.7 [2] = assay: Anti-inflammatory activity in mouse RAW264.7 cells assessed as inhibition of LPS-induced NO production preincubated for 1 hr followed by LPS-stimulation and measured after 18 hrs by Griess reagent-based assay; format: functional, cell-based

| IC50 (RAW264.7 [2]) | Structure (SMILES) | Activity (RAW264.7 [1]) |
| --- | --- | --- |
| > 50 µM | CC1(C)CC[C@]2(C(=O)O[C@@H]3O[C@H](CO[C@@H]4O[C@H](CO)[C@@H](O)[C@H](O)[C@H]4O)[C@@H](O)[C@H](O)[C@H]3O)CC[C@]3(C)C(=CC[C@@H]4[C@@]5(C)CC[C@H](O[C@@H]6OC[C@H](O)[C@H](O)[C@H]6O[C@@H]6O[C@H](CO)[C@@H](O)[C@H](O)[C@H]6O)C(C)(C)[C@@H]5CC[C@]43C)[C@@H]2C1 | Non-Toxic |
| > 50 µM | CC1(C)CC[C@]2(C(=O)O)CC[C@]3(C)C(=CC[C@@H]4[C@@]5(C)CC[C@H](O)[C@@](C)(CO[C@@H]6O[C@H](CO)[C@@H](O)[C@H](O)[C@H]6O)[C@@H]5CC[C@]43C)[C@@H]2C1 | Non-Toxic |
| > 50 µM | CC1(C)CC[C@]2(C(=O)O[C@@H]3O[C@H](CO[C@@H]4O[C@H](CO)[C@@H](O)[C@H](O)[C@H]4O)[C@@H](O)[C@H](O)[C@H]3O)CC[C@]3(C)C(=CC[C@@H]4[C@@]5(C)CC[C@H](O[C@@H]6OC[C@H](O)[C@H](O)[C@H]6O[C@@H]6O[C@H](CO)[C@@H](O)[C@H](O)[C@H]6O)[C@@](C)(CO)[C@@H]5CC[C@]43C)[C@@H]2C1 | Non-Toxic |
| > 50 µM | CC1(C)CC[C@]2(C(=O)O[C@@H]3O[C@H](CO)[C@@H](O)[C@H](O)[C@H]3O)CC[C@]3(C)C(=CC[C@@H]4[C@@]5(C)CC[C@H](O)C(C)(C)[C@@H]5CC[C@]43C)[C@@H]2C1 | Non-Toxic |
| > 50 µM | CC1(C)CC[C@]2(C(=O)O[C@@H]3O[C@H](CO[C@@H]4O[C@H](CO)[C@@H](O)[C@H](O)[C@H]4O)[C@@H](O)[C@H](O)[C@H]3O)CC[C@]3(C)C(=CC[C@@H]4[C@@]5(C)CC[C@H](O[C@@H]6OC[C@H](O)[C@H](O[C@@H]7O[C@H](CO)[C@@H](O)[C@H](O)[C@H]7O)[C@H]6O)C(C)(C)[C@@H]5CC[C@]43C)[C@@H]2C1 | Non-Toxic |
| > 50 µM | CC1(C)CC[C@]2(C(=O)O[C@@H]3O[C@H](CO[C@@H]4O[C@H](CO)[C@@H](O)[C@H](O)[C@H]4O)[C@@H](O)[C@H](O)[C@H]3O)CC[C@]3(C)C(=CC[C@@H]4[C@@]5(C)CC[C@H](O[C@@H]6OC[C@H](O)[C@H](O)[C@H]6O)C(C)(C)[C@@H]5CC[C@]43C)[C@@H]2C1 | Non-Toxic |
| > 50 µM | CC1(C)CC[C@]2(C(=O)O[C@@H]3O[C@H](CO[C@@H]4O[C@H](CO)[C@@H](O)[C@H](O)[C@H]4O)[C@@H](O)[C@H](O)[C@H]3O)CC[C@]3(C)C(=CC[C@@H]4[C@@]5(C)CC[C@H](O)[C@@](C)(CO)[C@@H]5CC[C@]43C)[C@@H]2C1 [DIPSACUSSAPONIN A] | Non-Toxic |
| > 50 µM | C=C1CC[C@]2(C(=O)O[C@@H]3O[C@H](CO[C@@H]4O[C@H](CO)[C@@H](O)[C@H](O)[C@H]4O)[C@@H](O)[C@H](O)[C@H]3O)CC[C@]3(C)C(=CC[C@@H]4[C@@]5(C)CC[C@H](O[C@@H]6OC[C@H](O)[C@H](O)[C@H]6O[C@@H]6O[C@H](CO)[C@@H](O)[C@H](O)[C@H]6O)C(C)(C)[C@@H]5CC[C@]43C)[C@@H]2C1 | Non-Toxic |
| > 50 µM | C=C1CC[C@]2(C(=O)O[C@@H]3O[C@H](CO[C@@H]4O[C@H](CO)[C@@H](O[C@@H]5O[C@@H](C)[C@H](O)[C@@H](O)[C@H]5O)[C@H](O)[C@H]4O)[C@@H](O)[C@H](O)[C@H]3O)CC[C@]3(C)C(=CC[C@@H]4[C@@]5(C)CC[C@H](O)C(C)(C)[C@@H]5CC[C@]43C)[C@@H]2C1 | Non-Toxic |
| > 50 µM | CC1(C)CC[C@]2(C(=O)O[C@@H]3O[C@H](CO[C@@H]4O[C@H](CO)[C@@H](O)[C@H](O)[C@H]4O)[C@@H](O)[C@H](O)[C@H]3O)CC[C@]3(C)C(=CC[C@@H]4[C@@]5(C)CC[C@H](O[C@@H]6OC[C@H](O)[C@H](O)[C@H]6O)[C@@](C)(CO)[C@@H]5CC[C@]43C)[C@@H]2C1 | Non-Toxic |
